According to ChEMBL document CHEMBL1201862, “PubChem BioAssay data set” (2004):
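Exposure lasted 48 hours, with cells grown in 96-well plates and compounds tested at five concentrations. GI50 is the concentration that inhibits growth by half.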 Active and inactive are the calls of the source. No stated cut-off is given here; in the data, active = GI50 up to about 1.1 µM and inactive = higher.

Columns and labels:
Assay in all cases: NCI anticancer screen, dose series, 48 h
CCRF-CEM = tested on: CCRF-CEM
OVCAR-3 = tested on: OVCAR-3
HT-29 = tested on: HT-29
MDA-N = tested on: MDA-N
A549 = tested on: A549
RXF 393 = tested on: RXF 393
SN12C = tested on: SN12C
HCT-116 = tested on: HCT-116
BT-549 = tested on: BT-549
786-0 = tested on: 786-0
SK-OV-3 = tested on: SK-OV-3
SF-268 = tested on: SF-268
EKVX = tested on: EKVX
LOX IMVI = tested on: LOX IMVI
SR = tested on: SR
OVCAR-8 = tested on: OVCAR-8
NCI/ADR-RES = tested on: NCI/ADR-RES
TK-10 = tested on: TK-10
A498 = tested on: A498
SNB-19 = tested on: SNB-19

Measured: GI50

C/C(=N\O)c1cccc(Nc2nc3ccccc3c3occc23)c1
inactive: CCRF-CEM 8.02 µM | OVCAR-3 13.7 µM | HT-29 4.32 µM | MDA-N 13.1 µM | A549 7.33 µM | RXF 393 5.19 µM | SN12C 15.5 µM | HCT-116 12.3 µM | BT-549 13.1 µM | 786-0 12.7 µM | SK-OV-3 15 µM | SF-268 11.9 µM | EKVX 12.7 µM | LOX IMVI 13.6 µM | SR 5.81 µM | OVCAR-8 16.6 µM | NCI/ADR-RES 13.1 µM | TK-10 13 µM | A498 14.8 µM | SNB-19 16.9 µM
